Patent US20240173332A1, “BENZO[…] TREATING OR PREVENTING RESPIRATORY SYNCYTIAL VIRUS INFECTION” (Pfizer Inc., priority 2021, published 2024)
Read-outs that look alike come from different tables or passages of the source.

Assays:
RSV A2 = experiment: RSV plaque reduction assay in Hep-G2 cells; type: cell-based, respiratory syncytial virus (RSV); conditions: human respiratory syncytial virus, HepG2, 48 h, Hep-G2 cells, RSV A2, 2 days; mean of at least two experiments; read-out: RSV A2 Plaque EC50
Description: Compounds were subjected to RSV plaque reduction assays according to the following protocol. Plaque EC50 and cell toxicity CC50 values are a mean of at least two experiments and figures are rounded to whole units.
Hep-G2 cells (ECACC, 85011430) were passaged in flasks and seeded in 24-well plates in DMEM containing antibiotics and supplemented with 10% FBS. During inoculation and subsequent incubation, cells were cultured in DMEM containing 2% FBS. 100 plaque forming unit/well of RSV (RSV A2 ECACC, 0709161v) was mixed with eight serial dilutions of compound. Subsequently, 100 μL of the virus/compound mixtures was added to confluent Hep-G2 cell monolayers. The cells and virus/compound mixtures were incubated at 37° C. in a humidified 5% CO2 incubator for 2 h prior to removal of the inoculum and addition of 1 mL of overlay (DMEM containing 2% FBS and 0.8% CMC) containing compound dilutions. The cells and were incubated at 37° C. in a humidified 5% CO2 incubator for 2 days.
Cells were washed with PBS before adding 75/25% v/v EtOH/MeOH, for 3 min. Fixative was removed and plates were washed with PBS. A pre-titrated amount of the primary antibody was added in 200 μL PBS/2% milk powder, and plates incubated for 90 min at 37° C. The plates were washed 3 times with PBS/0.05% Tween20 before addition of rabbit anti-goat horse radish peroxidase in 200 μL PBS/2% milk powder, and incubated for 1 h at 37° C. Following three wash steps with PBS/0.05% Tween20, 200 μL ready-to-use TrueBlue was added and plates were incubated at rt for 10-15 min before washing with water. After removal of water, plates were air-dried in the dark. Plates were scanned and analysed using the Immunospot S6 Macro analyser, which is equipped with BioSpot analysis software for counting immunostained plaques (virospots). Plaque counts were used to calculate % infection relative to the mean of the plaque count in the virus control wells for RSV. The EC50 value was calculated as 50% reduction in signal, respectively, by interpolation of inhibition curves fitted with a 4-parameter nonlinear regression with a variable slope in Dotmatics. Plaque EC50 and cell toxicity CC50 values are a mean of at least two experiments and figures are rounded to whole units.

Cell cytotoxicity CC50 = type: cell-based; conditions: human, Hep-G2 cells; mean of at least two experiments unless (n = 1)
[1] = Liver microsomal stability, rat; type: in vitro ADME; conditions: pooled liver microsomes, pH 7.4, 0.5 mg/mL protein, 1 μM compound, NADPH, read-out: Liver Microsomal Stability t1/2
Description: (§1) Compounds were subjected to the following assays to investigate liver microsomal stability and hepatocyte stability.
(§2) Pooled liver microsomes were purchased from a reputable commercial supplier and stored at −80° C. prior to use. Microsomes (final protein concentration 0.5 mg/mL), 0.1 M phosphate buffer pH 7.4 and test compound (final substrate concentration 1 μM; final DMSO concentration 0.25%) were pre-incubated at 37° C. prior to the addition of NADPH (final concentration 1 mM) to initiate the reaction. The final incubation volume was 50 μL. A control incubation was included for each compound tested where 0.1 M phosphate buffer pH 7.4 was added instead of NADPH (minus NADPH). Two control compounds were included with each species. All incubations were performed singularly for each test compound. Each compound was incubated for 0, 5, 15, 30 and 45 min. The control (minus NADPH) was incubated for 45 min only. The reactions were stopped by transferring incubate into acetonitrile at the appropriate time points, in a 1:3 ratio. The termination plates are centrifuged at 3,000 rpm for 20 min at 4° C. to precipitate the protein. Following protein precipitation, the sample supernatants were combined in cassettes of up to 4 compounds, internal standard added, and samples analysed by LC-MS/MS. From a plot of In peak area ratio (compound peak area/internal standard peak area) against time, the gradient of the line was determined. Subsequently, half-life (t1/2) and intrinsic clearance (CLint) were calculated.

[2] = Liver microsomal stability, dog; type: in vitro ADME; conditions: pooled liver microsomes, pH 7.4, 0.5 mg/mL protein, 1 μM compound, NADPH, read-out: Liver Microsomal Stability t1/2
Description: as §1, §2

[3] = Liver microsomal stability, human; type: in vitro ADME; conditions: pooled liver microsomes, pH 7.4, 0.5 mg/mL protein, 1 μM compound, NADPH, read-out: Liver Microsomal Stability t1/2
Description: as §1, §2

[4] = Hepatocyte stability, rat; type: in vitro ADME; conditions: cryopreserved pooled hepatocytes, 3 μM compound, 60 min, read-out: Liver Hepatocyte Stability t1/2
Description: as §1
(§3) Cryopreserved pooled hepatocytes were purchased from a reputable commercial supplier and stored in liquid nitrogen prior to use. Williams E media supplemented with 2 mM L-glutamine and 25 mM HEPES and test compound (final substrate concentration 3 μM; final DMSO concentration 0.25%) are pre-incubated at 37° C. prior to the addition of a suspension of cryopreserved hepatocytes (final cell density 0.5 ×10^6 viable cells/mL in Williams E media supplemented with 2 mM L-glutamine and 25 mM HEPES) to initiate the reaction. The final incubation volume is 500 μL. Two control compounds were included with each species, alongside appropriate vehicle control. The reactions were stopped by transferring 50 μL of incubate to 100 μL acetonitrile containing internal standard at the appropriate time points. Samples were removed at 6 time points (0, 5, 15, 30, 45 and 60 min) over the course of a 60 min experiment. The termination plates were centrifuged at 2500 rpm at 4° C. for 30 min to precipitate the protein.
(§4) Following protein precipitation, the sample supernatants were combined in cassettes of up to 4 compounds and analysed using generic LC-MS/MS conditions. From a plot of In peak area ratio (compound peak area/internal standard peak area) against time, the gradient of the line was determined. Subsequently, half-life (t1/2) and intrinsic clearance (CLint) were calculated.

[5] = Hepatocyte stability, dog; type: in vitro ADME; conditions: cryopreserved pooled hepatocytes, 3 μM compound, 60 min, read-out: Liver Hepatocyte Stability t1/2
Description: as §1, §3, §4

[6] = Hepatocyte stability, human; type: in vitro ADME; conditions: cryopreserved pooled hepatocytes, 3 μM compound, 60 min, read-out: Liver Hepatocyte Stability t1/2
Description: as §1, §3, §4

[7] = In vivo pharmacokinetics in rats (IV and PO); design: species or system Male rats [Sprague Dawley (SD)]; conditions: male SD rat; for half-life / Vd / clearance / Cmax / AUC(0-t): Sprague Dawley, plasma; for Vd / clearance / Cmax: study IV 1 mg/kg; for Cmax: route not given; for AUC(0-t): read-out: PO AUClast; for F: PO 10 mg/kg vs IV 1 mg/kg
Description: The pharmacokinetics of compounds were studied in vivo in rats at doses of 1 mg/kg (IV) and 10 mg/kg (PO).
Male rats [Sprague Dawley (SD)] surgically prepared with a jugular vein cannula were treated with experimental compounds via intravenous administration (IV; n=3; 1 mg/kg) or oral administration (PO; n=3; 10 mg/kg). Compounds were formulated as a solution in 40:60 dimethylacetamide:saline (IV administration) and a solution of 10% DMSO, 10% cremaphor in water (80%) (PO administration). […] Serial blood samples were collected via the cannula at 0.02, 0.08, 0.25, 0.5, 1, 2, 4, 6, 8 and 24 h post IV dosing of compound, and at 0.08, 0.25, 0.5, 1, 2, 4, 6, 8 and 24 h post oral dosing of compound, and plasma was prepared by centrifugation and stored immediately at −80° C. Samples were subsequently thawed, prepared for analysis by protein precipitation with acetonitrile, and analysed by tandem LCMS using electrospray ionisation using a matrix-matched calibration curve. PK parameters were calculated from the resulting data.

RSV = conditions: Antimicrobial Agents and Chemotherapy, Sept. 2007, 3346-3353; cited from earlier work
[8] = IV 1 mg/kg, read-out: IV t1/2 (converted)
[9] = PO 10 mg/kg, read-out: PO t1/2 (converted)

Structure (SMILES) | EC50 (RSV A2) [µM] | CC50 (Cell cytotoxicity CC50) [µM] | half-life at 1 μM [1] [h] | half-life at 1 μM [2] [h] | half-life at 1 μM [3] [h] | half-life at 3 μM [4] [h] | half-life at 3 μM [5] [h] | half-life at 3 μM [6] [h] | half-life [7, 8] [h] | half-life [7, 9] [h] | Vd ([7]; PO 10 mg/kg) [L/kg] | clearance ([7]; PO 10 mg/kg) [L/h/kg] | Cmax ([7]; PO 10 mg/kg) [µg/mL] | AUC(0-t) ([7]; PO 10 mg/kg) [µg·h/mL] | F [7] [%] | anti-RSV activity (RSV)
O=C(N[C@H]1N=C(c2ccccc2)c2cccc(F)c2NC1=O)c1c(-c2ccc(CO)cc2F)nn2cccnc12 [Example 1, 2-[2-Fluoro-4-(hydroxymethyl)phenyl]-N-[(35)-9-fluoro-2-oxo-5-phenyl-1,3-dihydro-1,4-benzodiazepin-3-yl]pyrazolo[1,5-a]pyrimidine-3-carboxamide] | 0.018 | > 25 | 0.69 | 10.6 | 5.48 | 1.38 | 2.62 | 5.55 | 1.5 | 3.1 | 0.75 | 0.69 | 0.788 | 3.88 | 25.6 | –
CC(C)n1cc(-c2nn3cccnc3c2C(=O)N[C@H]2N=C(c3ccccc3)c3cccc(F)c3NC2=O)cn1 [Example 4, N-[(3S)-9-fluoro-2-oxo-5-phenyl-1,3-dihydro-1,4-benzodiazepin-3-yl]-2-(1-propan-2-ylpyrazol-4-yl)pyrazolo[1,5-a]pyrimidine-3-carboxamide] | 0.037 | > 25 | 2.63 | 2.62 | 6.58 | 2.17 | 1.4 | 3.78 | 4.4 | 3.7 | 0.49 | 0.114 | 4.79 | 57.1 | 54.6 | –
CS(=O)(=O)c1ccc(-c2nn3cccnc3c2C(=O)N[C@H]2N=C(c3ccccc3)c3cccc(F)c3NC2=O)c(F)c1 [Example 7, 2-(2-Fluoro-4-methylsulfonylphenyl)-N-[(3S)-9-fluoro-2-oxo-5-phenyl-1,3-dihydro-1,4-benzodiazepin-3-yl]pyrazolo[1,5-a]pyrimidine-3-carboxamide] | 0.009 | > 25 | – | – | – | 85.7 | 0.95 | 6.28 | 1.6 | 2.5 | 1.4 | 0.786 | 2.34 | 24.8 | 188 | –
O=C(N[C@H]1N=C(c2ccccc2)c2cccc(F)c2NC1=O)c1c(-c2cccc(CO)c2F)nn2cccnc12 [Example 18, 2-[2-Fluoro-3-(hydroxymethyl)phenyl]-N-[(3S)-9-fluoro-2-oxo-5-phenyl-1,3-dihydro-1,4-benzodiazepin-3-yl]pyrazolo[1,5-a]pyrimidine-3-carboxamide] | 0.044 | > 25 | 0.983 | 6.5 | 8.83 | 1.57 | > 3 | > 3 | – | – | – | – | – | – | – | –
O=C(Nc1ccccc1F)N[C@H]1N=C(c2ccccc2)c2ccccc2NC1=O [RSV604] | – | – | – | – | – | – | – | – | – | – | – | – | – | – | – | sub-micromolar
